Values quoted from earlier work, collected in EP2566451B1, “PHARMACEUTICAL COMPOSITIONS COMPRISING CEFDITOREN PIVOXIL” (Bilgic, Mahmut, priority 2010, dated 2011).

Conditions: in water; stated in the background section, approximately

water solubility: less than 1 mg/ml
Structure (SMILES): CO/N=C(\C(=O)N[C@@H]1C(=O)N2C(C(=O)OCOC(=O)C(C)(C)C)=C(/C=C\c3scnc3C)CS[C@H]12)c1csc(N)n1 [Cefditoren pivoxil, (6R,7R)-pivaloyloxymethyl 7-[(Z)-2-(2-aminothiazol-4-yl)-2-(methoxyimino)acetamido]-3-[(Z)-2-(4-methylthiazol-5-yl)vinyl]-8-oxo-5-thia-1-azabicyclo[4.2.0]oct-2-ene-2-carboxylate]
